Results as given in patent US20160039852A1, “THERAPEUTIC USES OF BISPHOSPHONATES” (THE UNIVERSITY OF SHEFFIELD, priority 2013, published 2016).
Entries after “also recorded” stand apart in the source; their conditions may differ.

Experiments:
Type in all cases: cell-based
[1] = tested on: human mesenchymal stem cells (hMSC); assay: Expression of osteogenic and adipogenic differentiation markers in hMSC; details: CBFA-1, OPN, ALP, OC, LPL, PPAR-γ normalised to L-32; 14 days supplements
[2] = tested on: human mesenchymal stem cells (hMSC); assay: Immunostaining of γH2AX DNA damage foci (double stranded breaks) in hMSC
Protocol: DNA damage was induced by exposing hMSC to ^137Cs Gamma source. Cells were washed with PBS and fixed with 4% Para-formaldehyde for […]. Cells were then washed with PBS permeabilized with 0.5% Triton-X (Sigma, UK) for […] and blocked with 5% normal goat serum (DAKO, Glostrup, Denmark) in PBS for 1 hr. This was followed by incubation with primary antibody, anti-phospho histone H2AX (Ser139) (Millipore, Massachusetts, USA) used at 1:800 in 5% normal goat serum, overnight at 4° C. Cells were then washed in PBS and incubated in secondary Anti mouse IgG Fluorescein Isothiocyanate (FITC) conjugated (Insight Biotechnology, Santa Cruz, USA) at 1:200 in PBS for 1 hour at room temperature. The cover-slips were mounted on slides with mounting media (VectaShield) containing 4',6-diamidino-2-phenylindole (DAPI) to stain the nuclei. […] Cells were viewed using in an Inverted Zeiss LSM 510 NLO microscope equipped with Argon (Ar) laser (488 nm) 30 mW to image the fluorescent marker FITC and UV lamp to image DAPI stained nuclei. Five to seven fields consisting of 25 cells in total were randomly selected from a tile scan (20×) and individual cells viewed at 63× were then scored for γH2AX DNA damage foci using ImageJ 1.45 software (http://rsbweb.nih.gov/ij/). One of the factors affecting cellular lifespan is accumulation of DNA damage.

[3] = tested on: murine multiple myeloma line, 5TGM1; assay: γH2AX DNA damage foci in 5TGM1 multiple myeloma line after irradiation; details: irradiated in presence versus absence of Zol, 4 h after irradiation, n=3

Structure (SMILES): O=P(O)(O)C(O)(Cn1ccnc1)P(=O)(O)O [Zoledronate]
- expression of osteogenic and adipogenic differentiation markers [1]: increased
- DNA repair (γH2AX DNA damage foci), FIG. 9 ([2]; 1 μM, 4 hours after irradiation, Compound C compared with Zol): significant decrease
- number of γH2AX DNA damage foci after irradiation ([2]; 1Gy irradiation, compound at 1 μM, foci at 4 h (Zol also 12, 24 h) versus PBS, listed as Zol): significant decrease; also recorded: significant reduction
- number of γH2AX DNA damage foci after irradiation ([2]; 3 and 5Gy irradiation (data not shown)): significant decrease
- number of γH2AX DNA damage foci, dose response ([2]; increasing dosing with Zol): reduced number of DNA damage foci
- incidence of DNA damage foci with passage ([2]; passage 3 (early) and p10 (late), no irradiation, listed as Zol): significantly higher in untreated hMSC; also recorded: reduced
- number of γH2AX DNA damage foci [3]: No significant difference
